Reference: the NIST ThermoML archive (doi:10.1021/acs.jced.5b00752)
Several values for one entry are separate records, joined by “and”; a condition that tells them apart may be missing. Equal values may be shown once. ± gives the expanded uncertainty stated by the source.

Conditions: Closed cell (Static) method

CCOC(=O)c1ccccc1C(=O)OCC [diethyl phthalate]
Liquid
Conditions	vapor or sublimation pressure
312.21 K	0.00032 ± 0.0002 kPa and 0.00035 ± 0.0002 kPa
322.21 K	0.00105 ± 0.00023 kPa and 0.00103 ± 0.00023 kPa
332.21 K	0.00269 ± 0.00031 kPa
342.19 K	0.00623 ± 0.00048 kPa
352.18 K	0.01358 ± 0.00086 kPa
352.2 K	0.01352 ± 0.00085 kPa
362.2 K	0.02775 ± 0.0014 kPa
372.19 K	0.05429 ± 0.0025 kPa
372.2 K	0.05407 ± 0.0025 kPa
372.22 K	0.05424 ± 0.0025 kPa
382.23 K	0.1008 ± 0.0046 kPa
392.24 K	0.1821 ± 0.0076 kPa
402.37 K	0.3169 ± 0.013 kPa
412.38 K	0.5303 ± 0.022 kPa
422.49 K	0.8621 ± 0.035 kPa
442.28 K	2.082 ± 0.084 kPa
452.12 K	3.099 ± 0.12 kPa

[CH]1C=CC=C1.[CH]1C=CC=C1.[Fe] [ferrocene]
Conditions	vapor or sublimation pressure
312.2 K, Crystal	0.00369 ± 0.0005 kPa
312.21 K, Crystal	0.00359 ± 0.00051 kPa
322.21 K, Crystal	0.009 ± 0.0004 kPa and 0.00911 ± 0.00041 kPa
332.2 K, Crystal	0.02078 ± 0.00063 kPa
332.21 K, Crystal	0.02086 ± 0.00064 kPa and 0.02071 ± 0.00063 kPa
342.18 K, Crystal	0.04497 ± 0.001 kPa and 0.04517 ± 0.001 kPa
352.17 K, Crystal	0.0934 ± 0.0018 kPa [middle of 4 runs]
352.18 K, Crystal	0.09249 ± 0.0017 kPa and 0.09264 ± 0.0018 kPa and 0.09328 ± 0.0018 kPa
352.19 K, Crystal	0.0936 ± 0.0018 kPa
362.17 K, Crystal	0.1851 ± 0.0025 kPa and 0.185 ± 0.0024 kPa
362.18 K, Crystal	0.1854 ± 0.0025 kPa
372.2 K, Crystal	0.3543 ± 0.0038 kPa
382.19 K, Crystal	0.6508 ± 0.0061 kPa
392.2 K, Crystal	1.158 ± 0.01 kPa
402.26 K, Crystal	2.001 ± 0.011 kPa
402.31 K, Crystal	2.008 ± 0.011 kPa
412.24 K, Crystal	3.346 ± 0.013 kPa
412.32 K, Crystal	3.361 ± 0.013 kPa
422.29 K, Crystal	5.47 ± 0.017 kPa
422.4 K, Crystal	5.502 ± 0.017 kPa
432.42 K, Crystal	8.756 ± 0.023 kPa
442.26 K, Crystal	13.53 ± 0.03 kPa
452.08 K, Liquid	19.48 ± 0.31 kPa

c1ccc2ccccc2c1 [naphthalene]
Conditions	vapor or sublimation pressure
312.2 K, Crystal	0.04084 ± 0.0011 kPa and 0.04083 ± 0.0011 kPa
317.21 K, Crystal	0.06326 ± 0.0015 kPa
322.21 K, Crystal	0.09622 ± 0.002 kPa
327.21 K, Crystal	0.1447 ± 0.0025 kPa
332.21 K, Crystal	0.2153 ± 0.0032 kPa
337.21 K, Crystal	0.315 ± 0.0043 kPa and 0.3154 ± 0.0043 kPa
342.19 K, Crystal	0.4556 ± 0.0058 kPa
347.19 K, Crystal	0.651 ± 0.0079 kPa
352.19 K, Crystal	0.9213 ± 0.011 kPa
357.19 K, Liquid	1.2 ± 0.014 kPa
362.2 K, Liquid	1.521 ± 0.016 kPa
367.21 K, Liquid	1.915 ± 0.019 kPa and 1.914 ± 0.019 kPa
372.22 K, Liquid	2.393 ± 0.022 kPa
377.22 K, Liquid	2.966 ± 0.027 kPa and 2.967 ± 0.027 kPa
382.22 K, Liquid	3.657 ± 0.033 kPa
387.23 K, Liquid	4.475 ± 0.038 kPa and 4.476 ± 0.038 kPa
392.24 K, Liquid	5.45 ± 0.046 kPa
397.27 K, Liquid	6.593 ± 0.055 kPa and 6.596 ± 0.056 kPa
402.37 K, Liquid	7.962 ± 0.067 kPa
407.32 K, Liquid	9.502 ± 0.079 kPa
412.4 K, Liquid	11.33 ± 0.094 kPa
422.55 K, Liquid	15.88 ± 0.13 kPa
432.58 K, Liquid	21.75 ± 0.18 kPa
442.46 K, Liquid	29.18 ± 0.24 kPa
452.37 K, Liquid	38.57 ± 0.32 kPa

CC[N-]C.CC[N-]C.CC[N-]C.CC[N-]C.[Hf+4] [tetrakis(ethylmethylamino)hafnium]
Crystal
Conditions	vapor or sublimation pressure [kPa]
312.19 K	0.00296 ± 0.00021
322.2 K	0.00715 ± 0.0003
332.2 K	0.01587 ± 0.00056
342.18 K	0.03287 ± 0.00082
352.19 K	0.0644 ± 0.0013
362.19 K	0.121 ± 0.0026
372.21 K	0.216 ± 0.005
382.21 K	0.37 ± 0.011
392.24 K	0.591 ± 0.028
